Reference: paper PMC5735336, “Microwave-assisted synthesis and antitumor evaluation of a new series of thiazolylcoumarin derivatives” (EXCLI Journal, 2017)

What was measured:
EAC cells = assay: In vivo antitumor screening against EAC cells in mice; settings: 0.5 mg/mouse; for Hb / RBCs Count / WBCs Count: blood profile of mice inoculated with EAC cells; for Viable tumor cell count/100 μL / Tumor volume / Mean survival time / % Increase in lifespan: mice inoculated with EAC cells; for Viable tumor cell count/100 μL: after five days of treatment, trypan blue; for Tumor volume: ascitic fluid; for Mean survival time: treatment for nine days; for % Increase in lifespan: %ILS = [(MST treated/MST positive control)-1] x 100
Protocol: In vivo antitumor assessment of 5f, 5h, 5m and 5r was performed according to the literature method (Oberling and Guerin, 1954[48]; Sheeja et al., 1997[64]; Clarkson and Burchenal, 1965[9]).
Results of in vivo antitumor screening of compounds 5f, 5h, 5m and 5r (showing the highest in vitro antitumor activity) against EAC cells in mice are listed in Tables 2-4(Tab. 2)(Tab. 3)(Tab. 4). The % increase in lifespan of EAC inoculated mice (%ILS), the decrease in viable tumor cell count and the retrieval of normal blood profile are three substantial measures used for estimation of antitumor efficacy of the selected compounds and 5-fluorouracil (5-FU) (standard agent) (Oberling and Guerin, 1954[48]; Sheeja et al., 1997[64]; Clarkson and Burchenal, 1965[9]). The mean survival time (MST) of each group was rated and %ILS of mice inoculated with EAC cells was determined adopting the equation: %ILS = [(MST of treated group/ MST of positive control group)-1] x 100, where MST = days of the mouse in a group/total no. of mice. […] Also, this compound produced considerable decrease in viable tumor cell count (Table 3(Tab. 3)). […]
In vivo antitumor screening
Swiss male albino mice (wei ghing 20-25 g) were utilized. The y were dwelled in microlon boxes at temperature 25 ± 2 °C with a regular 12 hrs light/dark cycl e, in addition, food and water intake were permitted.
EAC cells were acquir ed from the NCI, Cairo, Egypt.
Mice were divided into 7 groups (n= 6).
Group 1: Negative contr ol (no EAC cells) - recei ved normal saline.
Group 2: Positive control (EAC cells) - receiv ed normal saline.
Group 3: EAC cells - received compound 5f (0.5 mg/mouse).
Group 4: EAC cells - received compound 5h (0.5 mg/mouse).
Group 5: EAC cells - received compound 5m (0.5 mg/mouse).
Group 6: EAC cells - received compound 5r (0.5 mg/mouse).
Group 7: EAC cells - received 5-fluorouracil (0.5 mg/mouse).
2 x 10^6 cells were inoc ulated intraperitoneall y t o each mouse in all groups ex cept the neg-ative control group. The tr eatment began 24 hrs after inoculation (0.5 mg/mouse) and con-tinued for nine days (Oberlin g and Gu erin, 19 54; Sheeja et al., 1997; Clarkson and Burch enal, […]
Determination of tumor volume
The ascetic fluid was gath ered from the peritoneal cavit y of dissected mice. It was th en centrifuged for 5 min and the tumor cell volume was set.
Determination of viable tumor cell count after five days of treatment
EAC cells (100 μ L, from three mice of each group) were obtained and diluted to twent y-fold with saline. The cells were st ained with tr ypan blue, t he dead cells are stained, whereas […]
The number of viable cells was counted. […]
Clarkson BD, Burchenal JH. Preliminary screening of antineoplastic drugs. Prog Clin Cancer. 1965;1:625-9. […]
(§1) Oberling C, Gu erin M. The role of viruses in the production of cancer . Ad v Cancer Res. 1954;2:353-423.
(§2) Sheeja KR, Kuttan G, Kuttan R. C ytotox ic and antitumour activit y of Berberin. Amala Res Bull. 1997;17:73-6.

[1] = system: cervical (Hela) cancer cell line; assay: In vitro antitumor screening, MTT assay, Hela; assay type: cell-based; settings: Homo sapiens, 50% inhibition of cell viability
Protocol: (§3) The new analogs were tested for in vitro antitumor efficacy adopting the reported procedure (Mosmann, 1983[46]; Denizot and Lang, 1986[13]; Gerlier and Thomasset, 1986[21]).
(§4) In vitro antitumor screening of compounds 5a-t was carried out on cervical (Hela) and kidney fibroblast (COS-7) cancer cell lines in accord to MTT assay (Mosmann, 1983[46]; Denizot and Lang, 1986[13]; Gerlier and Thomasset, 1986[21]) and utilizing doxorubicin as a standard drug. The concentrations of the compounds that cause 50% inhibition of cell viability (IC50, µM) were calculated. […]
(§5) In vitro antitumor screening
(§6) Compounds 5a-t were screened for in vitro antitumor activity against HepG2 (liver), HCT-116 (colon) and MCF-7 (breast) cancer cell lines adopting MTT assa y (Mosmann, 1983; Denizot and Lang, 1986; Gerlier and Thomasset, 1986) and usin g 5- fluorouracil as a reference antitumor agent. Cells were cultured in Roswell Park Memorial Institute (RPM I) 1640 medium wit h 10% fetal bovine serum, penicillin (100 units/mL) and streptomycin (100 µg/mL) at 37 ° C in an atmosphere of 5% CO 2 were added.
(§7) Cells were placed in 96-multiwell microtiter plates (10^4 cells/well), for 24 h rs at 37 °C and in an atmosphere of 5% CO2 before tr eatment with the compounds to allow attachment of the cells to the wall of the plate. The tested compounds were dissolved in DMSO and diluted with phosphate buffer saline (PBS) to obtain different concentrations. Tested compounds of dif-ferent concentrations were added to each well and cells were incubated with the compounds for 48 hrs at 37 °C and in an atmosphere of 5% CO2. All tests were performed in triplicates.
(§8) The treated cells were wash ed with PBS and 100 µL of 3 -(4,5-dimeth ylthiazol-2-yl )-2,5-diphe-n yltetrazolium bromide solution (MTT) (5 mg/m L MTT st ock in PBS diluted to 1 mg/ mL with 10% RPMI-1640 medium) was added. The 9 6 -multiwell plates were read b y microarra y read er Perkinelmer vector 3V multilabel counter model 1420 (Perkinelmer, Boston, MA) for optical densit y at 490 nm (Mosmann, 1983; Denizot and Lang, 1986; Gerlier and Thomasset, 1986).
(§9) The relative percenta ge cell viabilit y was calculate d from the following equation: […]
(§10) The relation between surviving fraction and drug concentration is plotted to get the survival curve for HepG2, HCT-116 and M CF-7 cancer cell lines . […]
(§11) Denizot F, Lang R. Rapid colorimetric assa y for cell growth and survival. Modifications to the tetrazolium dye procedure giving improved sensitivity an d reliability. J Immunol Methods. 1986;89:271-7.
(§12) Gerlier D, Thomasset T. Use of MTT colorimetric assa y to measure cell activation. J Immunol Methods. 1986; […]
(§13) Mosmann T. Rapid colorimetric assa y for cellular growth and survival: Application to proliferation and cytotox- […]
as §1, §2

[2] = In vitro cytotoxicity testing, MTT assay, W138 normal cells; assay type: cell-based; settings: W138 normal lung fibroblast cells, human normal lung fibroblast W138, read-out: IC50 W138 normal cell line
Protocol: In vitro cytotoxic activity of 5f, 5h, 5m and 5r was evaluated in accord to the reported method (Mosmann, 1983[46]; Denizot and Lang, 1986[13]; Gerlier and Thomasset, 1986[21]).
The effective antitumor compounds, 5f, 5h, 5m and 5r were further assessed for in vitro cytotoxicity toward human normal lung fibroblast (W138) cell line (Mosmann, 1983[46]; Denizot and Lang, 1986[13]; Gerlier and Thomasset, 1986[21]). IC50 values (µM) of the tested compounds and 5-FU (reference cytotoxic agent) were calculated. […]
as §5, §6, §7, §8, §9, §10
In vitro cytotoxicity testing […]
J Immunol Methods. 1986;89:271-7.
as §12, §13, §1, §2

[3] = system: kidney fibroblast (COS-7) cancer cell line; assay: In vitro antitumor screening, MTT assay, COS-7; assay type: cell-based; settings: Chlorocebus aethiops, 50% inhibition of cell viability, COS-7 cell line
Protocol: as §3, §4
In vitro antitumor screening […]
as §6, with “HCT-116” for “Compounds 5a-t were screened for in vitro antitumor activity against HepG2 (liver), HCT-116”
as §7, §8, §9, §10, §11, §12, §13, §1, §2

SMILES	Hb (EAC cells) [g/dL]	RBCs Count (EAC cells)	WBCs Count (EAC cells)	Viable tumor cell count/100 μL (EAC cells)	Tumor volume (EAC cells) [mL]	Mean survival time (EAC cells) [days]	% Increase in lifespan (EAC cells) [%]	IC50 [1] [nM]	IC50 at 48 h [2] [µM]	IC50 [3] [nM]
O=c1oc2ccccc2cc1-c1csc(NN=Cc2cc([N+](=O)[O-])ccc2Cl)n1 [5h, 3-(2-(2-(2-Chloro-5-nitrobenzylidene)hydrazino)thiazol-4-yl)-2H-chromen-2-one]	11.97	4.92 10^6/mm^3	9.25 10^3/mm^3	32.57x10^6 /100 μL	3.12	39.3	171.0	1420	19.8	1960
O=c1oc2ccccc2cc1-c1csc(NN=Cc2c(Cl)cccc2Cl)n1 [5f, 3-(2-(2-(2,6-Dichlorobenzylidene)hydrazino)thiazol-4-yl)-2H-chromen-2-one]	12.92	5.14 10^6/mm^3	8.41 10^3/mm^3	25.83x10^6 /100 μL	2.62	41.0	182.7	1900	36.2	> 50000
O=c1[nH]cc(F)c(=O)[nH]1 [5-Fluorouracil, 5-fluorouracil, reference compound]	12.96	5.21 10^6/mm^3	8.86 10^3/mm^3	20.17x10^6 /100 μL	1.60	49.0	237.9		5.73	
O=c1oc2ccccc2cc1-c1csc(NN=Cc2ccc[nH]2)n1 [5m, 3-(2-(2-((1H-Pyrrol-2-yl)methylidene)hydrazino)thiazol-4-yl)-2H-chromen-2-one]	11.43	4.39 10^6/mm^3	9.61 10^3/mm^3	40.52x10^6 /100 μL	3.85	37.0	155.2	6250	29.5	12500
O=c1oc2ccccc2cc1-c1csc(NN=Cc2c3ccccc3c(Cl)c3ccccc23)n1 [5r, 3-(2-(2-((10-Chloroanthracen-9-yl)-methylidene)hydrazino)thiazol-4-yl)-2H-chromen-2-one]	13.10	5.55 10^6/mm^3	7.45 10^3/mm^3	21.94x10^6 /100 μL	2.11	45.5	213.8	1290	24.3	1660
